According to patent publication US20040166509A1, “Detecting hormonally active compounds” (priority 2002, published 2004):

Key:
[1] = system: hepatic mRNA of adult male SHMs; assay: SHM cDNA macroarray (30 genes): hepatic gene expression profiles of exposed fish; type: in vivo, sheepshead minnow (SHM)
[2] = system: estrogen receptors alpha, beta, and gamma, and Vtg 1 mRNA; assay: Real-time PCR of ER and Vtg 1 mRNA in LMB liver; type: in vivo, largemouth bass (LMB); conditions: male LMB liver, 48 h after IP 4-NP 50 mg/kg + ICI 182,780 1.0 mg/kg
Text: Experimental Design and Sample Collection: Adult male LMB were purchased from American Sports Fish Hatchery (Montgomery, Ala.) and maintained in fiberglass tanks as previously described (Larkin et al., Comp. Biochem. Physiol. B. Biochem. Mol. Biol. 133:543-557, 2002; Larkin et al., Marine Environ. Res. 54:395-399, 2002; and Larkin et al., Comparative Biochemistry and Physiology 133:543-557, 2002). Array technology as a tool to monitor exposure of fish to xenoestrogens. Marine Environ. Res., 2002; Bowman et al., Mol. Cell. Endocrinol. 196:67-77, 2002). Each fish was injected IP with either 50 mg/kg 4-NP (Fluka, St. Louis, Mo. # 74430), the combination of 50 mg/kg 4-NP and 1.0 mg/kg ICI 182,780 (Tocris Cookson), or vehicle, which consisted of ethanol and DMSO (Sigma, St. Louis, Mo. #5879). Each dose was dissolved in 1 ml of ethanol and then diluted to the appropriate concentration with DMSO. The fish were euthanized by submersion in a water bath containing 50-100 ppm […] 48 hours post injection and sacrificed by a sharp blow to the head followed by cervical transaction. The livers were excised and immediately flash frozen in liquid nitrogen. The frozen tissues were stored at −80° C. until RNA was isolated.
RNA Isolation: Isolation of total RNA from liver tissue was performed with the RNA Stat-60 reagent (Tel-test). Briefly, 30 mg-50 mg of tissue stored in RNA later was homogenized in 0.9 mls STAT 60, choloroform was added, and the mixture was centrifuged at 12,000 g for 15 minutes at 4° C. The extraction process was repeated and the pooled RNA was added to 500 μl isopropanol and allowed to precipitate at −20° C. for at least one hour. Following centrifugation at 12,000 g for 50 minutes, the pellet was washed with 70% ethanol, air dried and resuspended in an appropriate volume (50 μl-120 μl of RNA secure. The samples were treated with RNA secure (Ambion, Austin Tex. #7010) to inactivate contaminating RNases. All isolated RNA was treated with DNase solution (Ambion, Austin, Tex. #1906) following the manufacture's protocol. For all RNA samples, the quantity and quality of total RNA was assessed by spectrophotometric readings at 260 nm and by electrophoresis through a 1% formaldahyde agarose gel stained with ethidium bromide.
Real-Time PCR: Real time PCR was performed using reagents and a 5700 thermocycler purchased from Applied Biosystems (ABI, Foster City, Calif.). The nucleotide sequences of the primers for the ER subtypes and Vtg 1 are as follows: 5′, […] (SEQ ID NO:563) AND 5′[…] (SEQ ID NO:564). Probes and primers for the ER subtypes and Vtg 1 are described in Bowman et al., Ecotoxicology 8:399-416, 1999; and Bowman et al., Mol. Cell Endocrinol. 196:67-77, 2002. Each real time PCR reaction consisted of 0.01-0.2 μg of reverse transcribed total RNA from liver tissue, 1× universal Taqman master mix (ABI, Foster City, Calif.), and primers and probes in a 25 μl reaction. […] Statistical differences between the treatments were determined by one way analysis of variance with Dunnets post-hoc analysis.
Measurement of ER and Vtg 1 mRNA by real-time PCR: Real-time PCR is a sensitive assay that can be used to quantitate expression levels of genes. Using this technology, assays were designed to quantitate the expression of 4 genes, estrogen receptors alpha, beta, and gamma, and Vtg 1 in LMB following exposure to 4-NP and 4-NP/ICI 182,780. […]

hepatic RNA of LMB = assay: LMB gene array (132 genes): hepatic gene expression after IP injection; type: in vivo, largemouth bass (LMB); conditions: two-fold cutoff vs control; for LMB83 vitellogenin-2 (Vtg 2) expression / LMB87 vitellogenin-1 (Vtg 1) expression / LMB97 choriogenin-3 expression / LMB108-1 choriogenin-2 expression / LMB47-2 (clone 47-2) expression: male LMB liver; for LMB83 vitellogenin-2 (Vtg 2) expression / LMB87 vitellogenin-1 (Vtg 1) expression / LMB97 choriogenin-3 expression / LMB108-1 choriogenin-2 expression: 48 h after single IP dose: E2 2.5 mg/kg, 4-NP 50 mg/kg or p,p′-DDE 100 mg/kg
[3] = Estrogen receptor alpha (clone ID not given)
[4] = clone SHM2-1: vitellogenin alpha (2)
[5] = clone SHM72-3: Coagulation Factor XI
[6] = clone SHM76-2: Alphal-microglobulin/bikunin precursor (AMBP) protein
[7] = female LMB liver, 48 h after single IP p,p′-DDE 100 mg/kg
[8] = female LMB liver, 48 h after single IP p,p′-DDE 100 mg/kg, listed as p, p′-DDE
[9] = male SHM liver, EE2 24, 109 or 832 ng/L, 4 days

Which results are given for `COc1ccc(C(c2ccc(OC)cc2)C(Cl)(Cl)Cl)cc1` [MXC, methoxychlor]?
Regulation [1, 3]: up-reg E2; EE2,; Regulation [1, 4]: up-reg E2; EE2,; Regulation ([1]; clone SHM11: Transferrin): dn-reg E2; EE2,; Regulation [1, 5]: up-reg E2; EE2,; Regulation [1, 6]: d-reg E2; EE2,

Which “repression of 4-NP induction of Vtg 1 mRNA by addition of ICI 182,780” value [2] does the source give for `C[C@]12CC[C@@H]3c4ccc(O)cc4C[C@@H](CCCCCCCCC[S+]([O-])CCCC(F)(F)C(F)(F)F)[C@H]3[C@@H]1CC[C@@H]2O` (stereo partly shown) [ICI 182,780] here?
The value was “not repressed”.

`ClC(Cl)=C(c1ccc(Cl)cc1)c1ccc(Cl)cc1` [p,p′-DDE] was tested. Which “LMB5 vitellogenin-2A expression, female” value (hepatic RNA of LMB; [7]) did it give?
The value was “NP; Dn-reg”.

And the “LMB50-1 (clone 50-1) expression, female” value (hepatic RNA of LMB; [7])?
The value was “Down reg NP;”.

And the “LMB53-1 (clone 53-1) expression, female” value (hepatic RNA of LMB; [7])?
Its value is “Down-reg. E2;”.

What about the “LMB71-1 (clone 71-1) expression, female” value (hepatic RNA of LMB; [7]) of the same compound?
The value was “down-reg”.

And the “LMB83 vitellogenin-2 expression, female” value (hepatic RNA of LMB; [7])?
Its value is “dn-reg DDE(F)”.

What about the “LMB87 vitellogenin-1 expression, female” value (hepatic RNA of LMB; [7]) of the same compound?
The value was “dn-reg DDE(F)”.

What about the “LMB94-1 transferrin expression, female” value (hepatic RNA of LMB; [7]) of the same compound?
The value was “Down-reg”.

What about the “LMB101-1 (clone 101-1) expression, female” value (hepatic RNA of LMB; [7]) of the same compound?
The value was “Dn”.

What about the “LMB102-1 chemotaxin expression, female” value (hepatic RNA of LMB; [7]) of the same compound?
The value was “down-reg”.

And the “LMB107-1 (clone 107-1) expression, female” value (hepatic RNA of LMB; [7])?
The value was “down-reg”.

What about the “LMB108-1 choriogenin-2 expression, female” value (hepatic RNA of LMB; [7]) of the same compound?
Its value is “DDE(M); Dn-”.

And the “LMB112-1 cathepsin (Aspartic protease) expression, female” value (hepatic RNA of LMB; [7])?
The value was “DHT; Dn-DDE (F)”.

And the “LMB118-1 apolipoprotein precursor (clone 118-1) expression, female” value (hepatic RNA of LMB; [7])?
The value was “down-reg”.

And the “LMB120-1 hypothetical protein (clone 120-1) expression, female” value (hepatic RNA of LMB; [7])?
Its value is “donw-reg”.

What about the “LMB128-1 (clone 128-1) expression, female” value (hepatic RNA of LMB; [7]) of the same compound?
The value was “down-reg”.

And the “LMB141 vitellogenin-3 expression, female” value (hepatic RNA of LMB; [7])?
Its value is “dn DDE (F)”.

And the “LMB150 androgen receptor expression, female” value (hepatic RNA of LMB; [7])?
The value was “Dn-reg DDE(F)”.

What about the “four Vtg's expression, female” value (hepatic RNA of LMB; [7]) of the same compound?
Its value is “down-regulated”.

What about the “genes up-regulated in female fish” value (hepatic RNA of LMB; [7]) of the same compound?
The value was “no genes were identified as up-regulated”.

And the “LMB50-1 (clone 50-1) expression, female” value (hepatic RNA of LMB; [8])?
Its value is “down-regulated”.

What about the “LMB53-1 (clone 53-1) expression, female” value (hepatic RNA of LMB; [8]) of the same compound?
Its value is “down-regulated”.

What about the “LMB71-1 (clone 71-1) expression, female” value (hepatic RNA of LMB; [8]) of the same compound?
Its value is “down-regulated”.

And the “LMB94-1 transferrin expression, female” value (hepatic RNA of LMB; [8])?
Its value is “down-regulated”.

What about the “LMB101-1 (clone 101-1) expression, female” value (hepatic RNA of LMB; [8]) of the same compound?
Its value is “down-regulated”.

And the “LMB102-1 chemotaxin expression, female” value (hepatic RNA of LMB; [8])?
The value was “down-regulated”.

And the “LMB107-1 (clone 107-1) expression, female” value (hepatic RNA of LMB; [8])?
Its value is “down-regulated”.

And the “LMB108-1 choriogenin-2 expression, female” value (hepatic RNA of LMB; [8])?
Its value is “down-regulated”.

And the “LMB112-1 cathepsin (Aspartic protease) expression, female” value (hepatic RNA of LMB; [8])?
The value was “down-regulated”.

And the “LMB118-1 apolipoprotein precursor (clone 118-1) expression, female” value (hepatic RNA of LMB; [8])?
The value was “down-regulated”.

What about the “LMB120-1 hypothetical protein (clone 120-1) expression, female” value (hepatic RNA of LMB; [8]) of the same compound?
The value was “down-regulated”.

What about the “LMB128-1 (clone 128-1) expression, female” value (hepatic RNA of LMB; [8]) of the same compound?
Its value is “down-regulated”.

What about the “LMB150 androgen receptor expression, female” value (hepatic RNA of LMB; [8]) of the same compound?
The value was “down-regulated”.

What about the “LMB83 vitellogenin-2 (Vtg 2) expression” value (hepatic RNA of LMB) of the same compound?
Its value is “up-reg E2;”.

And the “LMB87 vitellogenin-1 (Vtg 1) expression” value (hepatic RNA of LMB)?
Its value is “up-reg E2;”.

And the “LMB97 choriogenin-3 expression” value (hepatic RNA of LMB)?
Its value is “Up-reg E2;”.

What about the “LMB108-1 choriogenin-2 expression” value (hepatic RNA of LMB) of the same compound?
The value was “Up-reg E2; NP;”.

And the “LMB83 vitellogenin-2 (Vtg 2) expression” value (hepatic RNA of LMB; listed as p, p′-DDE)?
Its value is “up-regulated”.

And the “LMB87 vitellogenin-1 (Vtg 1) expression” value (hepatic RNA of LMB; listed as p, p′-DDE)?
Its value is “up-regulated”.

What about the “LMB97 choriogenin-3 expression” value (hepatic RNA of LMB; listed as p, p′-DDE) of the same compound?
Its value is “up-regulated”.

What about the “LMB108-1 choriogenin-2 expression” value (hepatic RNA of LMB; listed as p, p′-DDE) of the same compound?
Its value is “up-regulated”.

What about the “LMB47-2 (clone 47-2) expression” value (hepatic RNA of LMB; 48 h after single IP p,p′-DDE 100 mg/kg) of the same compound?
Its value is “Down-reg”.

What about the “LMB47-2 (clone 47-2) expression” value (hepatic RNA of LMB; 48 h after single IP p,p′-DDE 100 mg/kg, listed as p, p′-DDE) of the same compound?
The value was “down-regulated”.

With `C#C[C@]1(O)CC[C@H]2[C@@H]3CCc4cc(O)ccc4[C@H]3CC[C@@]21C` [EE2, 17α-ethynyl estradiol] as the compound, how does the Regulation [1, 3] read?
The Regulation was “up-reg E2; EE2,”.

And the Regulation [1, 4]?
Its Regulation is “up-reg E2; EE2,”.

What about the Regulation ([1]; clone SHM11: Transferrin) of the same compound?
The Regulation was “dn-reg E2; EE2,”.

And the Regulation [1, 5]?
The Regulation was “up-reg E2; EE2,”.

What about the Regulation [1, 6] of the same compound?
The Regulation was “d-reg E2; EE2,”.

What about the “ER α expression, EE2 dose response” value [1, 9] of the same compound?
The value was “increase in a concentration dependent manner”.

And the “Vtg α expression, EE2 dose response” value [1, 9]?
The value was “increase in a concentration dependent manner”.

What about the “Vtg β expression, EE2 dose response” value [1, 9] of the same compound?
Its value is “increase in a concentration dependent manner”.

And the “alpha-1-microglobulin/bikunin precursor protein expression, EE2 dose response” value [1, 9]?
The value was “decrease in a dose-dependent manner”.

And the “beta actin expression, EE2 dose response” value [1, 9]?
Its value is “decrease in a dose-dependent manner”.

What about the “choriogenin 2 expression, EE2 dose response” value [1, 9] of the same compound?
Its value is “increase in a concentration dependent manner”.

And the “choriogenin 3 expression, EE2 dose response” value [1, 9]?
The value was “increase in a concentration dependent manner”.

And the “clone ND107-B expression, EE2 dose response” value [1, 9]?
The value was “increase in a concentration dependent manner”.

And the “transferrin expression, EE2 dose response” value [1, 9]?
The value was “decrease in a dose-dependent manner”.

What does the source list for `CC/C(=C(/CC)c1ccc(O)cc1)c1ccc(O)cc1` [DES, diethylstilbestrol]?
Regulation [1, 3]: up-reg E2; EE2,; Regulation [1, 4]: up-reg E2; EE2,; Regulation ([1]; clone SHM11: Transferrin): dn-reg E2; EE2,; Regulation [1, 5]: up-reg E2; EE2,; Regulation [1, 6]: d-reg E2; EE2,
